Results reported in ChEMBL document CHEMBL4339187, “Discovery of a new class of MTH1 inhibitor by X-ray crystallographic screening” (Eur J Med Chem, 2019).
Activity calls are given as the source filed them. The rule behind the calls is not given here.

How the values were obtained:
[1] = system: Escherichia coli; assay: Inhibition of Escherichia coli inorganic pyrophosphatase assessed as reduction in orthophosphate formation at 0.3 to 10 uM measured after 40 using pyrophosphate as substrate by malachite green dye based absorbance assay
[2] = molecular target: Oxidized purine nucleoside triphosphate hydrolase (Homo sapiens) (UniProt P36639); assay: Binding affinity to recombinant C-terminal 6xHis-tagged MTH1 (3 to 156 residues) (unknown origin) expressed in Escherichia coli BL21(DE3) cells assessed as decrease in fluorescence intensity at 1 to 10 uM after 3 mins by tryptophan fluorescence spectroscopy
[3] = molecular target: Oxidized purine nucleoside triphosphate hydrolase (Homo sapiens) (UniProt P36639); assay: Binding affinity to recombinant C-terminal 6xHis-tagged MTH1 (3 to 156 residues) (unknown origin) expressed in Escherichia coli BL21(DE3) cells assessed as decrease in fluorescence intensity at 1 to 200 uM after 3 mins by tryptophan fluorescence spectroscopy

Structure (SMILES)	inhibition [1]	Activity [2]	Activity [3]
COc1c(O)cc2oc3cc4c(c(O)c3c(=O)c2c1CC=C(C)C)CCC(C)(C)O4	inactive	Active	–
CC(C)=CCc1c(O)cc2oc3cc(O)c(O)c(CC=C(C)C)c3c(=O)c2c1O	–	Active	–
Nc1nc2c(ncn2[C@H]2C[C@H](O)[C@@H](COP(=O)(O)OP(=O)(O)OP(=O)(O)O)O2)c(=O)[nH]1	–	Active	Active
COc1c(O)cc2oc3cc(O)c(CC=C(C)C)c(O)c3c(=O)c2c1CC=C(C)C	inactive	–	–
CNc1cc(-c2cccc(Cl)c2Cl)nc(N)n1	–	Active	–
